Assay [1] has as its target T1, RPE65 (Mus musculus, UniProt Q91ZQ5).
T1 construct: from tissue; host or cells: eyes of living BALB/cJ mice
T1 sequence (Q91ZQ5 1-533): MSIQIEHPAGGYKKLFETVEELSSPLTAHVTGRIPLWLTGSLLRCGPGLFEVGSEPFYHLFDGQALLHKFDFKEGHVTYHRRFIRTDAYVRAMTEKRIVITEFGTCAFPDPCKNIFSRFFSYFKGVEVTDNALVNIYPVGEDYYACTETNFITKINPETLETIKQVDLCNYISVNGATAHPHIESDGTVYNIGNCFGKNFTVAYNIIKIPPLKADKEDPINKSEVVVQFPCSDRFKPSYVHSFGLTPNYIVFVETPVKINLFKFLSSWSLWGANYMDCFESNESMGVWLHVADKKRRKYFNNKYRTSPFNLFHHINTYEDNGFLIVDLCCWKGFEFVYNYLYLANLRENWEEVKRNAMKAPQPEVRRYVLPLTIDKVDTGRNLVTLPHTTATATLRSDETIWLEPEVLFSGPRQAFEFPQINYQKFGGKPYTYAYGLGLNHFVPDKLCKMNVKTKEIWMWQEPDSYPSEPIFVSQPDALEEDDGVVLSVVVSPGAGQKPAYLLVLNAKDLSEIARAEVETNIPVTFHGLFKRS
Kind of assay: Chromophore regeneration after photobleach, HPLC retinoid profile. Type of assay: in vivo, BALB/cJ mice. The procedure: FIG. 4. Systemic injection of inhibitor RPE65-61 delays chromophore regeneration in BALB/cJ mice. Dark-adapted mice were injected with varying amounts of RPE65-61, and subjected to light-adaptation under 5000 lx of fluorescent light for 30 min. The eyes were harvested for HPLC retinoid profiling after 30 min of dark-adaptation, to measure levels of (FIG. 4A) 11-cis-RAL, (FIG. 4B) all-trans-RAL, and (FIG. 4C) all-transretinyl ester. (FIG. 4D) schematic representation of experimental design for RPE65-61 in vivo. Student's t-test. *P<0.05, **<0.01 and ***<0.001. (Mean±SEM).
Dark-adapted or light-exposed mice were sacrificed, and their eyes enucleated under dim red light. The whole eyes were homogenized with a glass grinder in lysis buffer [10 mM NH2OH, 50% ethanol, […] 2-(N-morpholino) ethanesulfonic acid, pH 6.5], incubated for 1 hr, and retinoids were extracted with hexane.
The ability of RPE65-61 to inhibit RPE65 in vivo was also investigated by determining chromophore regeneration after bleaching with 5,000 lux fluorescent light for 30 min. (FIG. 4).

The target in assay [2] is T2, RPE65 (Bos taurus, UniProt Q28175).
T2 construct: Bovine RPE microsomes were prepared as described previously; from tissue; host or cells: bovine retinal pigment epithelium (RPE) microsomes
T2 sequence (Q28175 whole entry): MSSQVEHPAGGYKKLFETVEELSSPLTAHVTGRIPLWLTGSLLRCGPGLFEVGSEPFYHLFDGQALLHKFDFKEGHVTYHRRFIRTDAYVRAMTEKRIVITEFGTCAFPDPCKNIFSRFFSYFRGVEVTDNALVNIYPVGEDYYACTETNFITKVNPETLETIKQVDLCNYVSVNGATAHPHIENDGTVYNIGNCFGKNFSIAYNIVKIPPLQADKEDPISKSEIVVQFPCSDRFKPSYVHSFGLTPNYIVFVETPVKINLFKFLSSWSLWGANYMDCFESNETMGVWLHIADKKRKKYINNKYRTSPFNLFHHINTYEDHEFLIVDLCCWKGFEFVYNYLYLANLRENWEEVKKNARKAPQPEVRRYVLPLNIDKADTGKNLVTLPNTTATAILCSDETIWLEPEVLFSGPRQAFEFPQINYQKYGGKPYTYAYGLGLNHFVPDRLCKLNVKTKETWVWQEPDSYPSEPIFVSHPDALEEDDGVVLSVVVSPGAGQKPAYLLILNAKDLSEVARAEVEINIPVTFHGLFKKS
Kind of assay: In vitro retinol isomerase (isomerohydrolase, IMH) assay with bovine RPE microsomes. Type of assay: biochemical. The protocol:
FIG. 2. Inhibition of the RPE65 isomerase activity by RPE65-61. Bovine RPE microsomes (20 μg) were incubated with 0.2 μM of all-trans-[3H]-retinol in the presence or absence of RPE65-61 for 1 h at 37° C. The generated retinoids were analyzed by HPLC coupled with flow scintillation analyzer. (FIG. 2A) HPLC elution profile without inhibitor; (FIG. 2B) with 375 nM of RPE65-61. Peak 1, retinyl esters; Peak 2, 11-cis-retinol; Peak 3 all-trans-retinol.
All-trans [11,12-^3H]-retinol (1 mCi/ml, 45.5 Ci/mmol, Perkin Elmer, Boston, MA) in N,N-dimethyl formamide (DMF) was used as the substrate for the isomerohydrolase assay. Bovine RPE microsomes were prepared as described previously. For each reaction, 25 μg microsomal proteins from the bovine RPE were added into 200 μl of reaction buffer (10 mM BTP, pH 8.0, 100 mM NaCl) containing 0.2 μM of all-trans retinol, 1% BSA and 25 μM of cellular retinaldehyde-binding protein (CRALBP). For the inhibition of isomerase activity, RPE65-61 dissolved in the DMF was added to the reaction prior to addition of all-trans retinol. The reaction was stopped and retinoids extracted with 300 μl of cold methanol and 300 μl of hexane and centrifuged at 10,000×g for 5 min. The upper layer was collected and the generated retinoids were analyzed by normal phase HPLC as described (Moiseyev, G. et al. 2003). […] The isomerohydrolase activity was calculated from the area of the 11-cis retinol peak using Radiomatic 610TR software (Perkin Elmer, Boston, MA) with synthetic 11-cis [^3H]-retinol as a standard. […] The retinoid profile after completion of the reaction was analyzed by HPLC where the peaks were identified by co-elution with retinoid standards. The RPE65 isomehydrolase activity was calculated based on the 11-cis retinol peak area as described (Moiseyev, G. et al. 2005; Nikolaeva, O. et al. 2009). […] The inhibition constant for RPE65-61 was calculated from the following equation: Ki=[I]/([…]) where [I] is concentration of inhibitor, Vm is maximal velocity in the absence of the inhibitor, and Vmi is maximal velocity in the presence of the inhibitor.

Like-named read-outs stand apart in the source and are kept apart here.

As to `N=S(=O)(CCN)c1cccc(OCC2CCCCC2)c1` (racemic) [RPE65-61, (±)-(2-aminoethyl) (3-(cyclohexylmethoxy)phenyl) (imino)-λ^6-sulfanone], on RPE65 [1] (0.5, 1 or 2 mg/kg injected, 5,000 lux 30 min), the “chromophore regeneration after photobleach” value is “delayed chromophore regeneration after photobleach in a dose-dependent manner”. Besides, on RPE65 [1] (mouse, in vivo), the “inhibition of 11-cis-retinal regeneration after photobleaching compared with CU-239” value is given as “higher potency” and the “retinyl ester levels in treated mice” value is reported as “accumulate higher levels of retinyl esters”. In addition, at RPE65 [2], the “RPE65 inhibition, in words” value is “effectively inhibit”. Moreover, at RPE65 [2] (bovine RPE microsomes, 0.2 μM all-trans-[3H]-retinol, read-out: apparent IC50, RPE65 isomerase activity), the IC50 was 80 nM. For the same compound, at RPE65 [2] (read-out: IC50 in the primary IMH / RPE65 inhibition assay), the IC50 worked out at 95 nM.
